The test system of one series is Hepa 1-6 cells. Put plainly: Calcein AM live cell marker after prodrug treatment. The note with it: following treatment with prodrug. Type of series: cell-based, mouse. How it is done: (§1) In Vitro cellular uptake of PI, RRH-PI compounds, and IV evaluated by fluorescence measurements. PI and the RRH-prodrugs were tested for cellular uptake on several cell lines which included B16 (murine melanoma), Hepa 1-6 (mouse hepatoma), SK-OV-3 (also SKOV-3, human ovarian carcinoma), OVCAR-3 (human ovarian carcinoma), Jurkat (human T-lymphocyte), 293 (human embryonic kidney), and MC38 (mouse colon carcinoma) cells. Adherent cells were plated at 2.5×10^5 cells/well on 6-well plates 24 h prior to testing. The growth media was removed from individual wells and the drug/prodrug was immediately added to the well with the mixing chamber. Final drug/prodrug concentrations were 0.150 μmol in 220 μl total volume (20 μl OS, 200 μl ITG). After 30 sec the drug solution was removed (aspirated) and 2 ml complete media was added to the cells. […] Fluorescent microscopy studies were conducted with a three laser LSM 510 confocal microscope, an Axiovert S100 fluorescent microscope, or an Axioplan2 fluorescent microscope (all Zeiss) equipped with filter sets for the rhodamine fluorescence channel (λex=BP 450/12, λem=LP 590 nm filter set) and the fluorescein fluorescent channel (λex=BP 546/90, λem=LP 515 nm filter set). […]

The subject of series [1] is cells. Put plainly: SYTOX Green dead cell indicator after prodrug treatment. Type of series: cell-based. The note with it: following treatment with prodrug. How it is done:
as §1

Series [2] relates to SK-OV-3 (human ovarian carcinoma). The series can be described thus: WST cytotoxicity assay, SK-OV-3. Type of series: cell-based. The note with it: SK-OV-3, 4 min drug exposure, read-out: Mean IC50. How it is done:
Antiproliferative/Cytotoxic in vitro studies on PI, RRH-PI prodrugs, melphalan, and C12PMMA-melphalan. In vitro cytotoxicity testing was conducted on Hepa 1-6 (mouse hepatoma), SK-OV-3 (human ovarian carcinoma), and MC38 (mouse colon carcinoma) cells using a tetrazolium based assay (WST, Dojindo Molecular Technologies). For the WST assay, Hepa 1-6 (2.0×10^5 cells well), SK-OV-3 (7.5×10^5 cells well), and MC38 (8.5×10^5 cells well) were seeded in 1000 μL media into 12-well plates 24 h prior to testing (starting confluency ˜50%). Following removal of media, drug/prodrug solution was added drop-wise to quadruplicate wells, using the mixing chamber. Effective drug concentrations were calculated from the amount of drug added in the total volume of OS and aqueous solution. Following 4 min of drug solution exposure, the solution was removed, and 1000 μl fresh complete media was added to each well. After the cells were incubated for 24-48 h, WST-1 (20 μl of a 5 mM solution in PBS) and N-methylphenazonium methyl sulfate (PMS, 20 μl 0.2 mM solution in PBS) were added and the cells were incubated for 1-4 h. For testing with MC38 cells, the amounts of WST-1 and PMS were doubled. Following incubation, 100 μl of sample was transferred to quadruplicate wells on a 96-well plate, and the absorbance (438 nm) values were measured on a SPECTRAmax Plus^384 microplate spectrophotometer (Molecular Devices Corporation). Data represents the mean A438 values of 16 wells with standard deviation, corrected for media contribution, and normalized against cells in media with no drug/prodrug treatment (reported as % cell viability±standard deviation).
The concentration of drug (μM) that is required for 50% inhibition in vitro is reported as the IC50. The reported values were calculated from the best fit line (Excel) for a plot of effective drug concentration against % cell viability, and include the r^2 value. The reported IC50 values for multiple RRH-PI plots are reported as IC50 (μM)±standard deviation.

In series [3] the test system is cells. The series can be described thus: Testing of mixing chamber: PI uptake in cells. The note with it: PI in DMF and isotonic glucose through mixing chamber. Type of series: cell-based. An excerpt:
Development of a Mixing Chamber. Due to the instability of the RRH-PI prodrugs in water, it was necessary to dissolve them in a small amount of pharmaceutically acceptable organic solvent (OS) and mix them with an aqueous solution immediately prior to delivery. Rapid and efficient mixing was critical for optimum delivery and minimalization of toxicity due to the organic solvent. A passive mixing chamber with colliding flows was utilized to mix the drug/RRH-prodrug (dissolved in a carrier solvent such as an organic solvent) with an aqueous solution immediately prior use. Two syringe pumps (Harvard Pumps, PHD 2000) were utilized to deliver the solutions to the mixing chamber. Typically mixtures were 1:10 by volume with 0.67 μl of PI or RRH-PI/OS solution (7.48 mM) diluted with 6.7 μl of isotonic glucose (ITG), buffer, or media per sec, for a total delivery volume of 220 μl (0.150 μmol of PI or RRH-PI) over 30 sec (final organic solvent concentration of 9.1% by vol.).
The mixing chamber (FIG. 3) was constructed from 18 G stainless steel tubing (38 mm in length) by drilling a 0.2 mm hole at a 45 degree angle in the tubing wall and then inserting 30 G stainless steel tubing. The 30 G stainless tubing was angled and advanced into the 18 G tubing so as to be centered within the larger tubing and then soldered in place. […]

Where two headings read alike, the source gives them in different places. A value given as a limit tells only on which side of the number the result lay.

On to `CCCCCCCCCCCCCCCCCC[Si](C)(C)Nc1ccc2c(c1)c(-c1ccccc1)[n+](CCC[N+](C)(CC)CC)c1cc(N[Si](C)(C)CCCCCCCCCCCCCCCCCC)ccc21.[I-].[I-]` [II, 3,8-bis[((dimethyl)octadecylsilazyl)amine] 5-(3,3-diethyl-3-methylammoniumpropyl) 6-phenyl phenanthridinium diiodide], for which the “cells both PI and calcein positive” value in the series on Hepa 1-6 cells was “approximately 86%”. The “cells both PI-positive and SYTOX Green positive” value with cells [1] is “less than 5%”. In addition, the half-inhibitory concentration (IC50) (as a rule, the concentration at which inhibition is half-maximal) in series [2] (WST 24 h after) is 194 µM; in series [2] (WST 48 h after) it was 257 µM.

For `CC[N+](C)(CC)CCC[n+]1c(-c2ccccc2)c2cc(N)ccc2c2ccc(N)cc21.[I-].[I-]` [PI, Propidium iodide, reference compound], in the series on cells [3], the “PI uptake in cells” value is “very little PI uptake in cells”. Further, the results for the IC50 in series [2] (WST 24 h after) and in series [2] (WST 48 h after) were more than 1250 µM and more than 1700 µM, respectively.

(Values after patent US20090074885A1, “Reversible Hydrophobic Modification of Drugs for Improved Delivery to Cells” (Roche Madison Inc., priority 2003, published 2009).)
